Measured values from BindingDB's records for doi:10.1021/acs.jmedchem.8b00605 (Leiden University, 2018).

Target: T1, C-C chemokine receptor type 1 (Homo sapiens, UniProt P32246)
T1 sequence (P32246 whole entry): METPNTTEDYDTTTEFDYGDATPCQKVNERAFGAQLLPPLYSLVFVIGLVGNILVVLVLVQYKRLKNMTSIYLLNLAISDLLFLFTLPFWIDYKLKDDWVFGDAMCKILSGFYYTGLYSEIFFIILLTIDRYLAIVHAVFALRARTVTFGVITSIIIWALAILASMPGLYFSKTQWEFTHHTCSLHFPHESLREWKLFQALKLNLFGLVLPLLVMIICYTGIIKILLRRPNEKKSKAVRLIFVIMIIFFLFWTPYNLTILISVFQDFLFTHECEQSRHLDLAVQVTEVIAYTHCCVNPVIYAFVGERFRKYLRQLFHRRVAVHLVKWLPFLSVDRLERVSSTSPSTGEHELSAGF
Assay: Displacement of [3H]-CCR2-RA-[R] from human TEV protease site linked CCR1 expressed in human U20S cell membranes co-expressing Gal4-VP16 transcription factor after 120 mins by scintillation spectrometry

**Q.** For `CC(=O)C1=C(O)C(=O)N(c2ccc(Br)cc2F)C1C1CCCCC1` (stereo unspecified), which Ki is on record?
**A.** 10 nM
